Assay results taken from a melting point compilation (Tetko et al.; mined from patent text by program, amines drawn as free bases though some values may be those of a salt).

SMILES | melting point [°C]
CN1c2ccc(S(=O)(=O)c3ccccc3)cc2C2C[C@H](N)CCC21 (stereo not given in full) | 217 to 219
CN(C(=O)C(F)(F)F)c1ccc2[nH]ncc2c1 | 172 to 174
CC(C)C#Cc1ncn2c1CN(C)C(=O)c1c(Cl)cccc1-2 | 128 to 130
O=C1Cc2ccccc2C(c2ccccc2)CN1 (stereo not given) | 154 to 155
Cc1c(/C=C/C(=O)c2cccc3ccccc23)ncn1C(c1ccccc1)(c1ccccc1)c1ccccc1 | 184 to 186
CC(C)=CCN1[C@H](C)Cn2c(=S)[nH]c3cccc(c32)[C@@H]1C (relative stereo) | 138
CCCN(CCN)CCNC(=O)c1nc(Cl)c(N)nc1N | 91 to 94
CCCCCCCCCCCCCCCC(=O)OC(CCCCCCCCCCCCCCC)CC(=O)NCCC(=O)NC(CCC(=O)O)C(=O)O (stereo not given) | 100 to 104
CS(=O)(=O)c1ccc(-n2nc(C(F)(F)F)cc2-c2ccc(C#Cc3ccccc3)cc2)cc1 | 170 to 172
Cc1nc(O)cc2sccc12 | 225 to 227
O=c1n(CCCF)nnn1-c1ccc([N+](=O)[O-])cc1F | 86 to 89
COC(=O)c1cc(OC)c(Cc2c(N)nc(N)nc2O)c(OC)c1 | 224 to 226
COc1ccc2cc(C(=O)O)ccc2n1 | 220 to 222
CCCCCCCCOCC(O)COc1ccc(-n2nc3ccccc3n2)c(O)c1 (stereo not given) | 51 to 55
COc1cc2ncc(N3C(=O)C4CCC3CC4)nc2cc1OC | 158 to 159
CCOC(=O)C(C)Oc1ncn(-c2ccc(C)cc2)n1 (stereo not given) | 69 to 71
Cc1cc(C(C)(C)C)c(O)c([N+](=O)[O-])c1[N+](=O)[O-] | 104 to 105
N#Cc1cccc(CN2C(=O)NC(c3ccccc3)(c3ccccc3)C2=O)c1 | 160 to 164
CC(C)c1nc(CCOC2=CCC(C(C)(C)C)CC2)n(C)c1Sc1cc(Cl)cc(Cl)c1 (stereo not given) | 99.5 to 100
COc1ccc(-n2nc(Cl)cc2-c2ccc(S(C)(=O)=O)cc2)cc1C#N | 191 to 194
CCOC(=O)c1ccc(NCCCc2ccccc2OC)cc1 | 106 to 109
CCOC(=O)c1cc(-n2c(=O)c3c(n(C)c2=O)CCCC3)ccc1Cl | 108 to 112
CC(Cl)OC(=O)c1ncc[nH]1 (stereo not given) | 50
O=C(CCC1CCCCCCCCCCC1)C1=C(O)CSC1=O | 60 to 62
O=C(O)c1cc(C(=O)O)cc(S(=O)(=O)Nc2ccc(F)c(C(F)(F)F)c2)c1 | 286 to 288

SMILES | melting point [°C]
O=C(CNC(=O)c1ccc([N+](=O)[O-])cc1[N+](=O)[O-])OCc1ccccc1 | 116 to 118
CN1c2ccc(C#CCOC3CCCCO3)cc2C(O)=C(C(=O)NCc2ccc(Cl)cc2)S1(=O)=O (stereo not given) | 148 to 149
COC(CCCNC(=O)C1CCC(C(=O)NCCCC(OC)OC)CC1)OC (stereo not given) | 191 to 195
CC(C)(C)OC(=O)N[C@@H](C(=O)N1CCC[C@H]1C(=O)NCC1CCc2nc(N)ncc2C1)C(c1ccccc1)c1ccccc1 (stereo not given in full) | 127 to 130
O=C(C1CCCc2c1c1ccccc1n2Cc1ccccc1)N1CCCC1 (stereo not given) | 232 to 234
CC(C)n1nc(Br)nc1O | 155 to 157
COc1cc(Nc2nccc(-c3ccc(N4CCCNCC4)nc3)n2)cc(OC)c1OC | 144 to 145
COc1cc(OC)c(C2=NC(NC(=O)c3cc4ccccc4[nH]3)C(=O)N(C)c3ccccc32)c(OC)c1 (stereo not given) | 297
Cc1cn2cccc(OCc3c(Cl)ccc(S(=O)(=O)N4CCC[C@H]4C(=O)O)c3Cl)c2n1 | 135
COC(=O)C(=CN(C)C)N(C)c1nc(-c2ccc(Cl)cc2)cs1 | 177 to 178
Cc1oc(-c2ccccc2)nc1C(=O)NN | 144 to 146
CN(C)N1C(=O)C(Cc2ccncc2)(Cc2ccncc2)c2ccccc21 | 190 to 193
COc1cc2c(cc1-c1cc(F)ccc1F)NC(=O)CC(c1cccc(-n3ccnn3)c1)=N2 | 241
COc1ccc2[nH]cc(CCNC(=O)C(F)(F)F)c2c1 | 135 to 136
Clc1ccc2nc3c(nc2c1)N1CCCCC1CO3 (stereo not given) | 147 to 149
Cc1cc(-c2ccc(C(F)(F)F)cc2)cn2c(-c3nc(-c4cnc(N)nc4)no3)cnc12 | 302
CC(C)(C)C(O)CN1C(=O)C(N)C(=O)N(c2ccccc2F)c2ccccc21 (stereo not given) | 104 to 105
Cc1noc(NS(=O)(=O)c2ccccc2-c2ccc(-c3ncccn3)cc2)c1C | > 210
CCN1C(=O)c2ccc(N)cc2C1=O | 169 to 171
COc1ccc(C(=O)c2ccc([N+](=O)[O-])c(CO)c2)cc1 | 116
N#Cc1ccc(C(Cc2ccc(C#N)cn2)Cn2cncn2)cc1 (stereo not given) | 98
CCCCNC(=O)Cc1ccc2c(c1)c(Cc1ccc(C(=O)NS(=O)(=O)c3ccccc3C)cc1OC)cn2CCC | 100 to 102
CCCCCCCN1C(=O)C2CC2(c2ccc(N)cc2)C1=O (stereo not given) | 78 to 79
Cc1cc(=O)n(-c2cc(C(=O)OC(C)C)c(Cl)cc2F)c(=O)n1C(F)F | 90 to 93
COc1cc(-c2csc(-c3ccccc3)n2)cc2oc(=O)c(C)c(C)c12 | 152 to 154

SMILES | melting point [°C]
CN1CCN(c2c(CO)cnc3c(NC(=O)c4c(Cl)cccc4Cl)cccc23)C1=O | 251 to 253
NS(=O)(=O)c1ccc(F)cc1 | 123 to 125
O=C(N[C@H](Cc1ccc(C(F)(F)F)cc1)[C@@H](O)c1cccc(Cl)n1)c1ccc(F)c2ccccc12 (racemic) | 225 to 226
COC(=O)c1ccccc1S(=O)(=O)N1CCC2(C=Cc3ccccc32)CC1 | 150 to 152
CCCOc1ccccc1-c1ncc(C(=O)NC)c(=O)[nH]1 | 190 to 191
Cc1c(C(=O)O)ccc2c1C(Cl)C(Cl)CS2(=O)=O (stereo not given) | 236 to 244
O=C1CCC(N2Cc3c(OCc4ccc(CN5CCC(c6cccnc6)CC5)cc4)cccc3C2=O)C(=O)N1 (stereo not given) | 161 to 163
Oc1ccc2cc(-c3noc4ccc(O)cc34)ccc2c1 | 250 to 252
COC(=O)C(C)(C)OCC#Cc1cc(Cl)ccc1NS(=O)(=O)c1ccc(C(C)C)cc1 | 65 to 67
COc1cccc2c1nc(C(F)F)n2-c1nc(N2CCOCC2)c2ncn(-c3cncnc3)c2n1 | 248 to 251
COc1ccc(S(=O)(=O)N2Cc3[nH]c4ccccc4c3CC2C(=O)O)cc1 (stereo not given) | 154
CCOC(=O)c1[nH]cnc1C(F)(F)F | 184 to 186
CCCCCOc1ccccc1C1=NNC(=O)CC1 | 50 to 52
Nc1nc2c(s1)CCN(CC=Cc1ccc(OCc3ccccc3)cc1)CC2 | 135 to 140
O=C(O)Cc1ccc(-c2ccc(C(F)(F)F)cc2)cc1 | 158 to 160
O=C(Nc1ccc(Br)cc1)Nc1cc(C(F)(F)F)ccc1Oc1ccccc1C(=O)O | 229 to 231
CCNC(=O)NCCc1cccc(-c2nc(=O)c3ccccc3s2)n1 | 240 to 242
C=CCNCC(COc1cccc2c1CC(=O)N2)OC(=O)C12CC3CC(CC(C3)C1)C2 (stereo not given) | 170 to 172
C#CCN(Cc1ccc2nc[nH]c(=O)c2c1)c1ccc(C(C)=O)cc1 | 197 to 199
CC(=O)NNc1ccnc2c(NC(=O)c3c(Cl)cccc3Cl)cccc12 | 252
CC(C)n1cc(-c2ccc3nnn(Cc4ccc5ncccc5c4)c3n2)cn1 | 126 to 128
COc1cc2c3c(cccc3c1)C(=O)c1c(O)cccc1-2 | 207 to 208
O=C(NCCc1cccc2ccc(OC3C=CCCC3)cc12)C1CCC1 (stereo not given) | 104 to 106
CCOC(=O)C(C)(C)Oc1ccc(-c2ccc(CCNC(=O)c3ccccc3C)cc2)cc1 | < 20
CCOC(=O)C(O[Si](C)(C)C)C(O[Si](C)(C)C)c1cc2c(cc1[N+](=O)[O-])OCO2 (stereo not given) | 73.6 to 79.1

SMILES | melting point [°C]
O=C(O)c1cn(-c2nncs2)c2cc(F)c(F)cc2c1=O | 233 to 236
CC(C)(c1ccc(O)cc1)c1ccc(N2C(=O)C=CC2=O)cc1 | 168 to 171
COC(=O)C(O)C(CC(C)C)NC(=O)C(Cc1c[nH]cn1)NC(=O)C(CC(=O)N(C)C)Cc1cccc2ccccc12 (mixture of isomers) | 117 to 121
COc1ccc(-c2ccccc2C(SCC(=O)c2ccccc2)C(O)C(N)=O)cc1 (stereo not given) | 132 to 134
Cc1oc(-c2ccccc2)nc1COc1ccc(COc2ncccc2CC#N)cn1 | 110 to 111
Clc1ccc(I)c(CBr)c1 | 75 to 79
CSc1ccc(-c2c(Cl)nc(Cl)nc2-c2ccc(Cl)cc2)cc1 | 144 to 146
CC(=O)NC1CCCCC1CCC(=O)O (stereo not given) | 116 to 121
CCn1ncc2c3noc(-c4ccc(F)cc4)c3cnc21 | 222 to 223
Cc1ccc(O)c(C(CCCC(c2cc(C)ccc2O)c2cc(C)ccc2O)c2cc(C)ccc2O)c1 | 220 to 228
CNc1nccn2c(Br)cnc12 | 139
CCC(=O)NCC=C1CCc2ccc3ncoc3c21 | 148 to 150
Cc1cc(Cl)ccc1OC(Cn1cncn1)C(O)C(C)(C)C (stereo not given) | 124 to 126
N#Cc1c(Br)[nH]c(Br)c1Br | 151 to 152
COc1ccc(NC(=O)CN2C(=O)c3ccccc3C2=O)c(OC)c1COc1cccc2ccc(C)nc12 | 229 to 231
CN(C)C=C1C(=O)N(c2cccc(C#N)c2)c2ccccc21 | 140 to 143
CC1Cc2c(O)cc(C(=O)O)cc2O1 (stereo not given) | 181 to 184
CCOC(=O)C(CC(=O)c1ccc(OC)cc1)C(=O)OCC | 81 to 84
O=C(Nc1nc(C(Cl)(Cl)Cl)ns1)c1cc([N+](=O)[O-])cc([N+](=O)[O-])c1 | 197
CCCCOC(=O)CS(=O)(=O)CC=C1SC=CS1 | 99 to 100
CN1N=C(c2ccccc2Cl)N(C)N=C1c1ccccc1Cl | 148 to 149
COc1cccc(-c2ccc3c(c2)C2(CCCCC2)C(=NO)N3)c1 | 101 to 104
OC(c1ccc(Cl)cc1)(c1ccc(Cl)cc1)c1nnc[nH]1 | 233 to 234
Cc1[nH]c(=O)[nH]c1C(=O)C=Cc1ccccc1 | 299
O=C1CC(NC(=O)c2ccc3nc[nH]c3c2)CCCN1 (stereo not given) | 297 to 299
